Target: OAT2h splice variant E131_W132insSQ (Homo sapiens, UniProt Q9Y694)
Conditions: initial rate 1 min, 37° C., 10 μmol/l, LC-MS/MS, uptake buffer in the expression period
Protocol: A substrate search by LC-MS difference shading was performed with 293 cells stably transfected to express OAT2 from rat. […] To verify that trigonelline is directly transported by OAT2 and not just increased indirectly, initial rates of uptake (1 min, 37° C.) of trigonelline (10 μmol/l) were determined by LC-MS/MS.
For measurement of solute uptake, cells were grown in surface culture on 60 mm polystyrol dishes (Nunclon 150288, Nunc, Roskilde, Denmark) precoated with 0.1 g/l poly-L-ornithine in 0.15 M boric acid-NaOH, pH 8.4. Cells were used for uptake experiments at a confluence of at least 70%. Uptake was measured at 37° C. […] Radioactivity was determined, after cell lysis with 0.1% v/v Triton X-100 in 5 mmol/l TRIS-HCl pH 7.4, by liquid scintillation counting. […]
After centrifugation (1 min, 16000×g, 20° C.) of thawed lysates, 100 μl of the supernatant was mixed with either 10 μl unlabeled MPP+ iodide (0.5 ng/μl) or biphenyl-4-carboxylic acid (Sigma-Aldrich) as internal standard. Of this mixture, […] were analyzed by LCMS/MS on a triple quadrupole mass spectrometer (4000 Q TRAP, Applied Biosystems, Darmstadt, Germany). […] For quantification (scan time 150 ms), the optimal collision energy for argon-induced fragmentation in the second quadrupole was determined for each analyte. […] Acute uptake mediated by heterologously expressed carrier was then calculated as (c−a)−(d−b). […]

- carrier-mediated clearance: 2.5±0.9 μl min-1 mg protein-1
SMILES: C[n+]1cccc(C(=O)[O-])c1 [trigonelline]

Reference: patent US20140090094A1, “MODULATORS OF SLC22A7” (BAYER INTELLECTUAL PROPERTY GmbH, priority 2011, published 2014)
